In US7605272B2, “IGF-1R inhibitor” (Kyowa Hakko Kirin Co., Ltd., priority 2005, dated 2009):
Where two headings read alike, the source gives them in different places.

How the values were obtained:
NCI-H929 = experiment: Cytostatic activity on human multiple myeloma cell line NCI-H929 (WST-1); assay type: cell-based; details: for inhibition at 10 µM: 10 μmol/L, read-out: cytostatic rate (%) H929 (10 μmol/L)
Method: (§1) The cytostatic rates of a test compound on human multiple myeloma cell lines NCI-H929 and KMS-11, were determined in the following manner.
(§2) For culturing NCI-H929, Roswell Park Memorial Institute's Medium (RPMI) 1640 (Gibco, Catalog No. 11875-093) containing 15% fetal bovine serum (Gibco, Catalog No. 10099-141), 1 mmol/L sodium pyruvate (Gibco, Catalog No. 11360-070), 10 mmol/L HEPES (Gibco, Catalog No. 15630-80), 4.5 g/L glucose (Sigma, Catalog No. G8769), 0.05 mmol/L 2-mercaptethanol (Nacalai Tesque, Catalog No. 21418-42) and penicillin/streptomycin (1:1) (Gibco, Catalog No. 15140-122) was used. For culturing KMS-11 cell, RPMI 1640 medium containing 10% fetal bovine serum and penicillin/streptomycin (1:1) was used. Each 80 μL of the NCI-H929 cell having a concentration of 1×10^5 cells/mL (or the KMS-11 cell having a concentration of 7.5×10^4 cells/mL) was inoculated to wells of a TC MICROWELL 96U plate (Nalge Nunc International, Catalog No. 163320) and was cultured in a 5% carbon dioxide gas incubator at 37° C. for 24 hours. Each 20 μL of a solution of the test compound in dimethyl sulfoxide (DMSO) which was prepared to make the final concentration to 1 μmol/L or 10 μmol/L, was added to each well. Each 20 μL of DMSO was added to the control well and the blank well to a final concentration of 0.1%. After adding the test compound, the cells were incubated in a 5% carbon dioxide gas incubator at 37° C. for 72 hours except for the blank well. After adding 20 μL of WST-1 reagent {4-[3-(4-iodophenyl)-2-(4-nitrophenyl)-2H-5-tetrazolio]-1,3-benzene disulfonate sodium salt} (Roche Diagnostics K.K., Catalog No. 1644807), which was diluted to 50% by RPMI medium to each well, the cells were further incubated at 37° C. for 2 hours. Then, the absorbances at 450 nm (reference wavelength: 690 nm) were measured with a microplate spectrophotometer SPECTRA max 340PC (Molecular Devices Corporation). The relative growth (%) of a well to which the test compound had been added and cultured for 72 hours was determined while setting the absorbance of a well to which not the test compound but DMSO alone had been added and cultured for 72 hours (control) as 100% and that of a well where the drugs are added (blank) as 0%. The cytostatic rate (%) of the test compound was determined by subtracting the calculated relative growth from 100.

KMS-11 = experiment: Cytostatic activity on human multiple myeloma cell line KMS-11 (WST-1); assay type: cell-based; details: for inhibition at 10 µM: Homo sapiens, 10 μmol/L, 72 hours, read-out: cytostatic rate (%) KMS-11 (10 μmol/L)
Method: as §1, §2

IGF-1R = target: T1, IGF-1R (Homo sapiens, UniProt P08069); experiment: IGF-1R inhibitory activity (kinase reaction, time-resolved fluoroimmunoassay); assay type: biochemical; details: test compound 10 μmol/L
T1 construct: purchased Upstate Co. 14-465
T1 sequence (P08069 959-1367 limits assumed): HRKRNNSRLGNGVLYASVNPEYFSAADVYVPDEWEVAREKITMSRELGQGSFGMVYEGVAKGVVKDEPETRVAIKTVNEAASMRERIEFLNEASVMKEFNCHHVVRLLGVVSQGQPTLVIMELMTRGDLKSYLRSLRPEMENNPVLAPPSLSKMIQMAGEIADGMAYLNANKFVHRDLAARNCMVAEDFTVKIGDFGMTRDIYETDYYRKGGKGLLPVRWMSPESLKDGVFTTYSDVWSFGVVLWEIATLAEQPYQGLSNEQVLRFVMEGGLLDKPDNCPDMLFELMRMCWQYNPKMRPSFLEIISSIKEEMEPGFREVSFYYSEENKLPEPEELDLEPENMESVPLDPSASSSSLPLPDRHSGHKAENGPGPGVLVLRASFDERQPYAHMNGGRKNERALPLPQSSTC
Outline: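 Compounds were tested at a single 10 μmol/L concentration. Each was incubated with recombinant IGF-1R (200 μg/L), 10 mmol/L ATP, MgCl2/MnCl2 and Na3VO4 (pH 7.5) on immobilized poly(Glu-Tyr) peptide for 30 min at 24° C. Eu-anti-phosphotyrosine time-resolved fluorescence (340/615 nm) gave relative activity against no-compound and no-enzyme wells, reported as % inhibition.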

[1] = IGF-1R active recombinant enzyme
[2] = Homo sapiens, NCI-H929, 72 h, 72 hours

Structure (SMILES) | inhibition at 10 µM (NCI-H929; [2]) [%] | inhibition at 10 µM (IGF-1R; [1]) [%] | inhibition at 10 µM (IGF-1R) [%] | other results
COC1CCN(C(=O)c2ccc(/C=C/c3n[nH]c4ccccc34)c(N3C(=O)c4cccc(N)c4C3=O)c2)CC1 [Compound 325] |  |  |  | cytostatic rate (%) H929 (1 μmol/L) (NCI-H929; NCI-H929 cells, test compound 1 μmol/L, WST-1): 118.4%; cytostatic rate (%) KMS-11 (1 μmol/L) (KMS-11; KMS-11 cells, test compound 1 μmol/L, WST-1): 100.1%; inhibitory activity (%) at 10 μmol/L (IGF-1R; [1]): 100.2%
Nc1cccc(C(=O)Nc2ccccc2/C=C/c2n[nH]c3ccccc23)c1 [Compound 69, (E)-3-amino-N-{2-[2-(1H-indazol-3-yl)vinyl]phenyl}benzamide] | 116 | 101 |  | inhibition at 10 µM (KMS-11; KMS-11, 72 h): 114%
CCN(C)C(=O)c1ccc(/C=C/c2n[nH]c3ccccc23)c(NC(=O)c2sccc2C)c1 [Compound 113, (E)-N-{5-(N-ethyl-N-methylcarbamoyl)-2-[2-(1H-indazol-3-yl)vinyl]phenyl}-3-methylthiophene-2-carboxamide] |  |  | 98.6 | inhibition at 10 µM (KMS-11; KMS-11, 72 h): 121%
COC(=O)c1ccc(/C=C/c2n[nH]c3ccccc23)c(NC(=O)c2sccc2C)c1 [Compound 97, (E)-4-[2-(1H-indazol-3-yl)vinyl]-3-[(3-methylthiophen-2-ylcarbonyl)amino]benzoic acid methyl ester] |  |  | 97.1 | inhibition at 10 µM (KMS-11; KMS-11, 72 h): 100%
Cc1ccsc1C(=O)Nc1ccc(OCCN2CCOCC2)cc1/C=C/c1n[nH]c2ccccc12 [Compound 103, (E)-N-{2-[2-(1H-indazol-3-yl)vinyl]-4-(2-morpholinoethoxy)phenyl}-3-methylthiophene-2-carboxamide] | 130 |  | 97 | 
CN(C(=O)c1ccccc1)c1ccccc1/C=C/c1n[nH]c2ccccc12 [Compound 38, (E)-N-{2-[2-(1H-indazol-3-yl)vinyl]phenyl}-N-methylbenzamide] | 65 | 93 |  | 
Cc1ccsc1C(=O)Nc1cc2c(cc1/C=C/c1n[nH]c3ccccc13)OCO2 [Compound 130, (E)-N-{6-[2-(1H-indazol-3-yl)vinyl]benzo[1,3]dioxol-5-yl}-3-methylthiophene-2-carboxamide] | 126 |  | 98.3 | 
Cn1cccc1C(=O)Nc1ccc(OCCN2CCOCC2)cc1/C=C/c1n[nH]c2ccccc12 [Compound 104, (E)-N-{2-[2-(1H-indazol-3-yl)vinyl]-4-(2-morpholinoethoxy)phenyl}-1-methylpyrrole-2-carboxamide] | 130 |  | 98.3 | 
CC(C)C(=O)Nc1ccc(C(=O)Nc2ccccc2/C=C/c2n[nH]c3ccccc23)s1 [Compound 62, (E)-N-{2-[2-(1H-indazol-3-yl)vinyl]phenyl}-5-isobutyrylaminothiophene-2-carboxamide] | 120 | 95.7 |  | 
Cc1ccsc1C(=O)Nc1cc(C(=O)N2CCNCC2)ccc1/C=C/c1n[nH]c2ccccc12 [Compound 99, (E)-N-{2-[2-(1H-indazol-3-yl)vinyl]-5-(piperazin-1-ylcarbonyl)phenyl}-3-methylthiophene-2-carboxamide] |  |  | 97.4 | inhibition at 10 µM (KMS-11; KMS-11, 72 h): 118%
CCN(CC)C(=O)c1ccc(/C=C/c2n[nH]c3ccccc23)c(NC(=O)c2sccc2C)c1 [Compound 101, (E)-N-{5-(N,N-diethylcarbamoyl)-2-[2-(1H-indazol-3-yl)vinyl]phenyl}-3-methylthiophene-2-carboxamide] |  |  | 100 | inhibition at 10 µM (KMS-11; KMS-11): 117%
O=C(Nc1cc(C(=O)N2CCN(CCO)CC2)ccc1/C=C/c1n[nH]c2ccccc12)c1ccccc1 [Compound 290] |  |  |  | cytostatic rate (%) H929 (1 μmol/L) (NCI-H929; 1 μmol/L, 72 hours): 93.8%; inhibitory activity (%) at 10 μmol/L (IGF-1R; [1]): 95.7%
COC1CCN(C(=O)c2ccc(/C=C/c3n[nH]c4ccccc34)c(N3Cc4c(N)cccc4C3=O)c2)CC1 [Compound 310, (E)-4-amino-2-{2-[2-(1H-indazol-3-yl)vinyl]-5-(4-methoxypiperidin-1-ylcarbonyl)phenyl}-2,3-dihydroisoindole-1-one] |  | 97.9 |  | inhibition at 1 µM (NCI-H929; Homo sapiens, NCI-H929, 72 h, NCI-H929 cells, test compound 1 μmol/L, WST-1, read-out: cytostatic rate (%) H929 (1 μmol/L)): 105%
Cn1cccc1C(=O)Nc1cc2c(cc1/C=C/c1n[nH]c3ccccc13)OCO2 [Compound 131, (E)-N-{6-[2-(1H-indazol-3-yl)vinyl]benzo[1,3]dioxol-5-yl}-1-methylpyrrole-2-carboxamide] | 122 |  | 94.1 | 
COc1cc(N)c(/C=C/c2n[nH]c3ccccc23)cc1OC [Compound 92, (E)-2-[2-(1H-indazol-3-yl)vinyl]-4,5-dimethoxyphenylamine] | 70.1 |  | 66.5 | 
Nc1ccc(C(=O)Nc2ccc(OCCN3CCOCC3)cc2/C=C/c2n[nH]c3ccccc23)s1 [Compound 106, (E)-5-amino-N-{2-[2-(1H-indazol-3-yl)vinyl]-4-(2-morpholinoethoxy)phenyl}thiophene-2-carboxamide] | 112 |  |  | inhibition at 10 µM (KMS-11; KMS-11, 72 h): 115%
CCCNC(=O)c1ccc(/C=C/c2n[nH]c3ccccc23)c(NC(=O)c2sccc2C)c1 [Compound 112, (E)-N-{2-[2-(1H-indazol-3-yl)vinyl]-5-(N-propylcarbamoyl)-phenyl}-3-methylthiophene-2-carboxamide] |  |  | 98.5 | inhibition at 10 µM (KMS-11; KMS-11, 72 h): 126%
O=C(Nc1ccc(C(=O)Nc2ccccc2/C=C/c2n[nH]c3ccccc23)s1)c1cccs1 [Compound 61, (E)-N-{2-[2-(1H-indazol-3-yl)vinyl]phenyl}-5-[(thiophen-2-ylcarbonyl)amino]thiophene-2-carboxamide] | 124 | 94.5 |  | 
OCc1ccn(-c2ccccc2/C=C/c2n[nH]c3ccccc23)c1 [Compound 168, (E)-1-{2-[2-(1H-indazol-3-yl)vinyl]phenyl}-1H-pyrrole-3-methanol] | 106 | 99 |  | 
Cc1ccsc1C(=O)Nc1cc(C(=O)O)ccc1/C=C/c1n[nH]c2ccccc12 [Compound 98, (E)-4-[2-(1H-indazol-3-yl)vinyl]-3-[(3-methylthiophen-2-ylcarbonyl)amino]benzoic acid] | 66.3 |  | 98.4 | 
CC(=O)N1CCN(c2ccccc2/C=C/c2n[nH]c3ccccc23)CC1 [Compound 133, (E)-4-acetyl-1-{2-[2-(1H-indazol-3-yl)vinyl]phenyl}piperazine] | 62.9 | 70.4 |  | 
Cc1ccsc1C(=O)Nc1cc(C(=O)N2CC[C@@H](N)C2)ccc1/C=C/c1n[nH]c2ccccc12 [Compound 102, (E)-(R)—N-{5-(3-aminopyrrolidine-1-ylcarbonyl)-2-[2-(1H-indazol-3-yl)vinyl]phenyl}-3-methylthiophene-2-carboxamide] | 125 |  | 97.8 | 
Cc1ccsc1C(=O)Nc1cc(C(=O)N2CCC3(CC2)OCCO3)ccc1/C=C/c1n[nH]c2ccccc12.Cl [Compound 129, (E)-N-{5-(1,4-dioxa-8-azaspiro[4,5]decane-8-carbonyl)-2-[2-(1H-indazol-3-yl)vinyl]phenyl}-3-methylthiophene-2-carboxamide hydrochloride] |  |  |  | inhibitory activity (%) at 10 μmol/L (IGF-1R): 99.9%
O=C1c2cccnc2C(=O)N1c1ccccc1/C=C/c1n[nH]c2ccccc12 [Compound 205, (E)-6-{2-[2-(1H-indazol-3-yl)vinyl]phenyl}pyrrolo[3,4-b]pyridine-5,7-dione] |  | 89.8 |  | 
C(=C\c1n[nH]c2ccccc12)/c1ccccc1-n1ccc(CNCC2CC2)c1 [Compound 189, (E)-3-cyclopropylmethylaminomethyl-1-{2-[2-(1H-indazol-3-yl)vinyl]phenyl}pyrrole] |  | 102 |  | 
C(=C\c1n[nH]c2ccccc12)/c1ccccc1-c1nc2ccccc2o1 [Compound 183, (E)-2-{2-[2-(1H-indazol-3-yl)vinyl]phenyl}benzoxazole] |  | 59.1 |  | 
